In patent publication US10131652B2, “Pyrimidinyloxy benzene derivatives as herbicides” (E. I. DU PONT DE NEMOURS AND COMPANY, priority 2014, dated 2018):

Assays:
Assay type in all cases: in vivo
wild oat (Avena fatua) = test: Test D postemergence plant response
Excerpt: (§1) At the same time, plants selected from these crop and weed species and also kochia (Kochia scoparia), wild oat (Avena fatua), and chickweed (common chickweed, Stellaria media) were planted in pots containing Redi-Earth® planting medium (Scotts Company, 14111 Scottslawn Road, Marysville, Ohio 43041) comprising spaghnum peat moss, vermiculite, wetting agent and starter nutrients and treated with postemergence applications of test chemicals formulated in the same manner. Plants ranged in height from 2 to 18 cm (1- to 4-leaf stage) for postemergence treatments. Treated plants and controls were maintained in a greenhouse for 13 to 15 days, after which time all species were compared to controls and visually evaluated. Plant response ratings, summarized in Table D, are based on a scale of 0 to 100 where 0 is no effect and 100 is complete control. A dash (-) response means no test result.

[1] = tested on: chickweed (common chickweed, Stellaria media); test: Test D postemergence plant response
Excerpt: as §1

kochia (Kochia scoparia) = test: Test D postemergence plant response
Excerpt: as §1

[2] = tested on: blackgrass (Alopecurus myosuroides); test: Test B postemergence plant response
Summary of the method: (§2)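 Visual injury rating, 0–100 (0 = no effect, 100 = complete control), vs untreated controls ~10 days after postemergence spray; greenhouse; potted loam soil/sand; plants 2–10 cm, 1–2 leaf stage.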

[3] = tested on: galium (catchweed bedstraw, Galium aparine); test: Test B postemergence plant response
Summary of the method: as §2

[4] = 31 g ai/ha, scale 0 to 100 (0 no effect, 100 complete control)
[5] = 16 g ai/ha, scale 0 to 100 (0 no effect, 100 complete control)
[6] = 125 g ai/ha, postemergence, 0 to 100 scale, 0 no effect, 100 complete control
[7] = Postemergence, 500 g ai/ha, 0 to 100 scale (0 no effect, 100 complete control)
[8] = 62 g ai/ha, scale 0 to 100, 0 no effect, 100 complete control
[9] = 125 g ai/ha, scale 0 to 100, 0 no effect, 100 complete control
[10] = 31 g ai/ha, Postemergence, 0 to 100 scale, 0 no effect, 100 complete control
[11] = Postemergence, 31 g ai/ha, 0 to 100 scale (0 no effect, 100 complete control)

Row | Compound | Oat, Wild plant response rating (wild oat (Avena fatua); [4]) | Chickweed plant response rating [1, 5] | Chickweed plant response rating [1, 4] | Kochia plant response rating (kochia (Kochia scoparia); [4]) | Plant response rating, Blackgrass [2, 6] | Plant response rating, Blackgrass [2, 7] | Plant response rating, Galium [3, 6] | Plant response rating, Galium [3, 7] | Plant response rating, Oat, Wild (wild oat (Avena fatua); [8]) | Plant response rating, Oat, Wild (wild oat (Avena fatua); [9]) | Plant response rating, Chickweed [1, 8] | Plant response rating, Chickweed [1, 9] | Plant response rating, Kochia (kochia (Kochia scoparia); [8]) | Plant response rating, Kochia (kochia (Kochia scoparia); [9]) | Plant response rating (scale 0 to 100), Oat, Wild (wild oat (Avena fatua); 16 g ai/ha) | Oat, Wild plant response rating (wild oat (Avena fatua); [8]) | Plant response rating (scale 0 to 100), Chickweed ([1]; 16 g ai/ha) | Plant response rating (scale 0 to 100), Kochia (kochia (Kochia scoparia); 16 g ai/ha) | Plant response rating, Blackgrass [2, 11] | Plant response rating, Galium [3, 11] | also measured
1 | N#Cc1cccc(Oc2ncc(Cl)cn2)c1-c1cc(C(F)(F)F)on1 [Compound 157] | 10 | 50 | 75 | 90 | 70 | 90 | 100 | 100 | – | – | – | – | – | – | – | – | – | – | – | – | Plant response rating (scale 0 to 100), Oat, Wild (wild oat (Avena fatua); 4 g ai/ha): 0; Plant response rating (scale 0 to 100), Oat, Wild (wild oat (Avena fatua); 8 g ai/ha): 0; Plant response rating (scale 0 to 100), Chickweed ([1]; 4 g ai/ha): 5; Plant response rating (scale 0 to 100), Chickweed ([1]; 8 g ai/ha): 10; Plant response rating (scale 0 to 100), Kochia (kochia (Kochia scoparia); 4 g ai/ha): 0; Plant response rating (scale 0 to 100), Kochia (kochia (Kochia scoparia); 8 g ai/ha): 20
2 | FC(F)c1cc(-c2c(Cl)cccc2Oc2ncc(Cl)cn2)on1 [Compound 120] | 40 | 95 | 100 | 100 | 90 | – | 100 | – | 55 | 60 | 100 | 100 | 100 | 100 | – | – | – | – | – | – | Oat, Wild plant response rating (wild oat (Avena fatua); [5]): 35; Kochia plant response rating (kochia (Kochia scoparia); [5]): 98; Plant response rating, Blackgrass [2, 10]: 70; Plant response rating, Galium [3, 10]: 100
3 | Cc1cc(-c2c(F)cccc2Oc2ncc(Br)cn2)on1 [Compound 230] | 0 | – | 65 | 85 | 70 | – | 100 | – | – | 10 | – | 80 | – | 100 | 0 | 5 | 65 | 65 | 20 | 80 | Chickweed plant response rating [1, 8]: 75; Kochia plant response rating (kochia (Kochia scoparia); [8]): 100
4 | Clc1cnc(Oc2ccccc2-c2cc(C3CC3)on2)nc1 [Compound 183] | 5 | – | 60 | 95 | 80 | 90 | 100 | 100 | – | 25 | 65 | 70 | 100 | 100 | 0 | 10 | 30 | 90 | – | – | –
5 | Cc1cc(-c2ccccc2Oc2ncc(Cl)cn2)no1 [Compound 153] | 0 | 20 | 20 | 50 | 40 | 90 | 90 | 100 | 0 | 0 | 20 | 25 | 40 | 60 | – | – | – | – | – | – | –
6 | FC(F)(F)c1cc(-c2ccccc2Oc2ncc(Cl)cn2)ncn1 [Compound 54] | 0 | 5 | 5 | 55 | 70 | 80 | 100 | 100 | 5 | 5 | 5 | 5 | 80 | 80 | – | – | – | – | – | – | Oat, Wild plant response rating (wild oat (Avena fatua); [5]): 0; Kochia plant response rating (kochia (Kochia scoparia); [5]): 50
7 | FC(Cl)(Cl)c1cc(-c2ccccc2Oc2ncc(Cl)cn2)no1 [Compound 198] | 5 | – | 60 | 95 | 40 | – | 100 | – | – | 10 | 60 | 95 | 100 | 100 | 5 | 10 | 5 | 60 | 10 | 100 | –
8 | FC(F)(Cl)c1cc(-c2ccccc2Oc2ncc(Cl)cn2)no1 [Compound 143] | 0 | 45 | 50 | 100 | 60 | – | 100 | – | 5 | 5 | 60 | 80 | 100 | 100 | – | – | – | – | 30 | 50 | –
9 | FC(F)c1cc(-c2c(Cl)cccc2Oc2ncc(Br)cn2)on1 [Compound 121] | 45 | 95 | 100 | 100 | 80 | – | 100 | – | 70 | 70 | 100 | 100 | 100 | 100 | – | – | – | – | – | – | Plant response rating, Blackgrass [2, 10]: 50; Plant response rating, Galium [3, 10]: 100
10 | FCc1cc(-c2ccccc2Oc2ncc(Cl)cn2)on1 [Compound 224] | 0 | – | 15 | 70 | 70 | – | 100 | – | – | 0 | 40 | 80 | 95 | 100 | 0 | 0 | 10 | 35 | 40 | 80 | –
11 | Clc1cnc(Oc2ccccc2-c2ccon2)nc1 [Compound 185] | 0 | – | 0 | 0 | 0 | 50 | 40 | 70 | – | 5 | 5 | 5 | 5 | 30 | 0 | 0 | 0 | 0 | – | – | –
